Source: paper PMC6099238 (Journal of Clinical Pharmacology, 2018)
Like-named read-outs stand apart in the source and are kept apart here.

Legend:
urinary urate excretion = test: Urinary excretion of urate, fractional excretion of urate and xanthine; type: in vivo, patients with gout
serum uric acid = test: Serum uric acid lowering, phase 1b open-label multiple-dose study; type: in vivo, patients with gout; conditions: for serum uric acid: Change From Baseline, Emax (maximum percentage change from baseline in serum uric acid lowering) / serum uric acid: Change From Baseline, Predose / Subjects With Predose Serum Uric Acid <4 mg/dL / Subjects With Predose Serum Uric Acid <5 mg/dL / Subjects With Predose Serum Uric Acid <6 mg/dL: group 2; for serum uric acid: Change From Baseline, Emax (maximum percentage change from baseline in serum uric acid lowering) / serum uric acid: Change From Baseline, Predose: ALLO 300 mg/day alone (day 7), ALLO 300 mg/LESU 600 mg (day 14), LESU 600 mg/day alone (day 21), % (SE); for Subjects With Predose Serum Uric Acid <4 mg/dL / Subjects With Predose Serum Uric Acid <5 mg/dL / Subjects With Predose Serum Uric Acid <6 mg/dL: ALLO 300 mg/day alone (day 7, n = 10), ALLO 300 mg/LESU 600 mg (day 14, n = 10), LESU 600 mg/day alone (day 21, n = 9)
URAT1 = conditions: cited from earlier work
[1] = type: in vivo, patients with gout
[2] = ALLO 300 mg/LESU 400 mg versus ALLO 300 mg alone
[3] = ALLO 300 mg/LESU 600 mg versus ALLO 300 mg alone

Q: What does the source list for `Oc1ncnc2[nH]ncc12` [allopurinol]?
A: decrease of 24‐hour urate excretion compared with baseline (urinary urate excretion; allopurinol 300 mg alone): ~35%; Mean 24‐hour urate excretion compared with baseline (urinary urate excretion; allopurinol 300 mg/day alone): –35%; effect on fractional excretion of urate (urinary urate excretion; single agent): no effect; effect on xanthine excretion (urine) (urinary urate excretion; single agent): increased; Emax (serum uric acid lowering) (serum uric acid; allopurinol 300 mg (discussion)): −37%; serum uric acid reduced by (serum uric acid; allopurinol 300 mg/day alone (abstract)): 37%; serum uric acid: Change From Baseline, Emax (maximum percentage change from baseline in serum uric acid lowering) (serum uric acid): −35.1 (2.3) %; serum uric acid: Change From Baseline, Predose (serum uric acid): −28.7 (2.4) %; Subjects With Predose Serum Uric Acid <4 mg/dL (serum uric acid): 0 n (%); Subjects With Predose Serum Uric Acid <5 mg/dL (serum uric acid): 1 (10) n (%); Subjects With Predose Serum Uric Acid <6 mg/dL (serum uric acid): 3 (30) n (%)

Q: For `O=C(O)CSc1nnc(Br)n1-c1ccc(C2CC2)c2ccccc12` [lesinurad], which “effect on xanthine excretion (urine)” value (urinary urate excretion; single agent) is on record?
A: no significant effect

Q: What about the “serum uric acid: Change From Baseline, Emax (maximum percentage change from baseline in serum uric acid lowering)” value (serum uric acid) of the same compound?
A: −46.7 (5.5) %

Q: What about the “serum uric acid: Change From Baseline, Predose” value (serum uric acid) of the same compound?
A: −37.2 (1.6) %

Q: And the “Subjects With Predose Serum Uric Acid <4 mg/dL” value (serum uric acid)?
A: 0 n (%)

Q: What about the “Subjects With Predose Serum Uric Acid <5 mg/dL” value (serum uric acid) of the same compound?
A: 3 (33) n (%)

Q: And the “Subjects With Predose Serum Uric Acid <6 mg/dL” value (serum uric acid)?
A: 6 (67) n (%)

Q: What about the “serum uric acid reduced by” value (serum uric acid; lesinurad 400 mg/day, added to allopurinol 300 mg/day or alone (abstract)) of the same compound?
A: 44%

Q: And the “serum uric acid reduced by” value (serum uric acid; lesinurad 600 mg/day, added to allopurinol 300 mg/day or alone (abstract))?
A: 47%

Q: For `O=c1[nH]c(=O)c2c[nH]nc2[nH]1` [oxypurinol], which transporter substrate (URAT1) is on record?
A: substrate of URAT1

Q: And the “Oxypurinol AUC0‐24 Geometric Mean Ratio (90%CI) (Combination/Alone)” value [1, 2]?
A: 74.2 (65.1‐84.7)

Q: What about the “Oxypurinol Cmax Geometric Mean Ratio (90%CI) (Combination/Alone)” value [1, 2] of the same compound?
A: 79.4 (69.8‐90.3)

Q: What about the “Oxypurinol AUC0‐24 Geometric Mean Ratio (90%CI) (Combination/Alone)” value [1, 3] of the same compound?
A: 64.7 (61.3‐68.3)

Q: What about the “Oxypurinol Cmax Geometric Mean Ratio (90%CI) (Combination/Alone)” value [1, 3] of the same compound?
A: 71.7 (67.8‐75.7)

Q: And the “Decrease of oxypurinol plasma concentrations” value ([1]; during co-administration of lesinurad 400 mg with allopurinol 300 mg)?
A: approximately 26%

Q: And the “Decrease of oxypurinol plasma concentrations” value ([1]; during co-administration of lesinurad 600 mg with allopurinol 300 mg)?
A: ~35%

Q: And the Cmax ([1]; human, plasma, oral, Oxypurinol Cmax, ALLO 300 mg/LESU 600 mg co-administration, geometric mean, n = 10)?
A: 9660 ng/mL

Q: And the “Oxypurinol Tmax” value ([1]; plasma, ALLO 300 mg alone, group 1 (before LESU 400 mg), median (range), n = 10)?
A: 4.00 (3.00‐6.00) h

Q: And the “Oxypurinol Cmax” value ([1]; plasma, ALLO 300 mg/LESU 400 mg co-administration, geometric mean, n = 10)?
A: 9.82 (8.66‐11.1) μg/mL
